Laboratory results from US9388142B2, “Quinazolinone derivatives as PARP inhibitors” (MERCK PATENT GMBH, priority 2012, dated 2016).
Where a name gives a salt, the structure may show the parent alone. Read-outs that look alike come from different tables or passages of the source.

Assays:
[1] = target: T1, GST-tagged Tankyrase-1 (1023-1327 aa) (Homo sapiens, UniProt O95271); test: biochemical
T1 construct: GST-tagged Tankyrase-1 (1023-1327 aa)
Excerpt: aq (aqueous), h (hour), g (gram), L (liter), mg (milligram), MHz (Megahertz), min. (minute), mm (millimeter), mmol (millimole), mM (millimolar), m.p. (melting point), eq (equivalent), mL (milliliter), L (microliter), ACN (acetonitrile), AcOH (acetic acid), CDCl3 (deuterated chloroform), CD3OD (deuterated methanol), CH3CN (acetonitrile), c-hex (cyclohexane), DCC (dicyclohexyl carbodiimide), DCM (dichloromethane), DIC (diisopropyl carbodiimide), DIEA (diisopropylethyl-amine), DMF (dimethylformamide), DMSO (dimethylsulfoxide), DMSO-d6 (deuterated dimethylsulfoxide), EDC (1-(3-dimethyl-amino-propyl)-3-ethylcarbodiimide), ESI (Electro-spray ionization), EtOAc (ethyl acetate), Et2O (diethyl ether), EtOH (ethanol), HATU (dimethylamino-([1,2,3]triazolo[4,5-b]pyridin-3-yloxy)-methylene]-dimethylammonium hexafluorophosphate), HPLC (High Performance Liquid Chromatography), i-PrOH (2-propanol), K2CO3 (potassium carbonate), LC (Liquid Chromatography), MeOH (methanol), MgSO4 (magnesium sulfate), MS (mass spectrometry), MTBE (Methyl tert-butyl ether), NaHCO3 (sodium bicarbonate), NaBH4 (sodium borohydride), NMM (N-methyl morpholine), NMR (Nuclear Magnetic Resonance), PyBOP (benzotriazole-1-yl-oxy-trispyrrolidino-phosphonium hexafluorophosphate), RT (room temperature), Rt (retention time), SPE (solid phase extraction), TBTU (2-(1-H-benzotriazole-1-yl)-1,1,3,3-tetramethyluromium tetrafluoro borate), TEA (triethylamine), TFA (trifluoroacetic acid), THF (tetrahydrofuran), TLC (Thin Layer Chromatography), UV (Ultraviolet). Description of the In Vitro Assays Abbreviations: GST=Glutathione-S-transferase FRET=Fluorescence resonance energy transfer HTRF®=(homogenous time resolved fluorescence) HEPES=4-(2-hydroxyethyl)-1-piperazine ethanesulfonic acid buffer DTT=Dithiothreitol BSA=bovine serum albumin CHAPS=detergent; CHAPS=3[(3-cholamidopropyl)dimethylammonio]-1-propanesulfonate Streptavidin-XLent® is a high grade streptavidin-XL665 conjugate for which the coupling conditions have been optimized to yield a conjugate with enhanced performances for some assays, particularly those requiring high sensitivity.
(§1) The autoparsylation assay is run in two steps: the enzymatic reaction in which GST-tagged Tankyrase-1, resp Tankyrase-2 transferred biotinylated ADP-ribose to itself from biotinylated NAD as co-substrate and the detection reaction where a time resolved FRET between cryptate labelled anti-GST bound to the GST tag of the enzyme and Xlent® labelled-streptavidin bound the biotin-parsylation residue is analysed. The autoparsylation activity was detectable directly via the increase in HTRF signal.
The autoparsylation assay is performed as 384-well HTRF® (Cisbio, Codolet, France) assay format in Greiner low volume nb 384-well microtiter plates and is used for high throughput screen. […] The reaction is stopped by the addition of 1 μl 50 mM EDTA solution. […] The ratio of the emission signals is determined. The full value used is the inhibitor-free reaction. […] The inhibitory values (IC50) are determined using either the program Symyx Assay Explorer® or Condosseo® from GeneData.

His-tagged Parp-1 = target: T2, His-tagged Parp-1 (Homo sapiens, UniProt P09874); test: PARP-1 autoparsylation assay (HTRF); assay type: biochemical
T2 construct: purchased Enzo Life Sciences GmbH, Lörrach, Germany
T2 sequence (P09874 whole entry): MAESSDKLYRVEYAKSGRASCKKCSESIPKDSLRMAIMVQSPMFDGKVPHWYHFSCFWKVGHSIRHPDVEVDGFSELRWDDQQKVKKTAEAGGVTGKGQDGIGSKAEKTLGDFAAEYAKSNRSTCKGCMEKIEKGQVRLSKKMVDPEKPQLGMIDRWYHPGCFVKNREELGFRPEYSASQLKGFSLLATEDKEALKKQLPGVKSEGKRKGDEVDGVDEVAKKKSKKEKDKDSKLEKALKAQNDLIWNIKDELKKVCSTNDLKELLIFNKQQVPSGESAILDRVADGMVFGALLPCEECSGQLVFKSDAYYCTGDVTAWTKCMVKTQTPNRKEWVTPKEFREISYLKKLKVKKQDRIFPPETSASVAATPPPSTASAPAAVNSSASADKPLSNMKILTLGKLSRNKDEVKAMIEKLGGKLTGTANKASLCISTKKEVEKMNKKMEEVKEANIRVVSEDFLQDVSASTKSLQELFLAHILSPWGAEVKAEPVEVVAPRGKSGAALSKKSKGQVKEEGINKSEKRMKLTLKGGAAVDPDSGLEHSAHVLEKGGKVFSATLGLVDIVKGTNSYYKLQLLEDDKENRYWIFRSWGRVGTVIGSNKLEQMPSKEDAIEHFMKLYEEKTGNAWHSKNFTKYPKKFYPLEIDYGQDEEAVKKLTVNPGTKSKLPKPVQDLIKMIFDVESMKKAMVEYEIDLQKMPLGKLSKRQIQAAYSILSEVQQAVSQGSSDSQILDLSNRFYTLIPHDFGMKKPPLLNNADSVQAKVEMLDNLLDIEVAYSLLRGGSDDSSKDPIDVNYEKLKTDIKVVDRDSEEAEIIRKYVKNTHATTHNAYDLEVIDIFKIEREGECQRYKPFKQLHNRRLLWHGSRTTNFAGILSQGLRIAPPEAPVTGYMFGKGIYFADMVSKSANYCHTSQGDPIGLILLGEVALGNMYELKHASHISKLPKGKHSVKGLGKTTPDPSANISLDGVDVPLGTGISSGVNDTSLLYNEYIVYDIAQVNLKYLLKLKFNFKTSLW
Excerpt: Description of the PARP1 Assay
Biochemical Activity Testing of PARP-1: Autoparsylation Assay
as §1, with “His-tagged Parp-1 transfers” for “GST-tagged Tankyrase-1, resp Tankyrase-2 transferred”, “ADP-ribose/ADP-ribose” for “ADP-ribose”, “NAD/NAD” for “NAD”, “anti-His antibody” for “anti-GST”, “His” for “GST”, “is” for “was”
The autoparsylation assay is performed as 384-well HTRF® (Cisbio, Codolet, France) assay format in Greiner low volume nb 384-well microtiter plates. 35 nM His-tagged Parp-1 (human, recombinant, Enzo Life Sciences GmbH, Lörrach, Germany) and a mixture of 125 nM bio-NAD (Biolog, Life science Inst., Bremen, Germany) and 800 nM NAD as co-substrate are incubated in a total volume of 6 μl (100 mM Tris/HCl, 4 mM Mg-chloride, 0.01% IGEPAL® CA630, 1 mM DTT, 0.5% DMSO, pH 8, 13 ng/μl activated DNA (BPS Bioscience, San Diego, US)) in the absence or presence of the test compound (10 dilution concentrations) for 150 min at 23° C. The reaction is stopped by the addition of 4 μl of the Stop/detection solution (70 nM SA-Xlent® (Cisbio, Codolet, France), 2.5 nM Anti-His-K® (Eu-labelled anti-His, Cisbio, Codolet, France) in 50 mM HEPES, 400 mM KF, 0.1% BSA, 20 mM EDTA, pH 7.0). After 1 h incubation at room temperature the HTRF iss measured with an Envision multimode reader (Perkin Elmer LAS Germany GmbH) at excitation wavelength 340 nm (laser mode) and emission wavelengths 615 nm and 665 nm. The ratio of the emission signals is determined. The full value used is the inhibitor-free reaction. The pharmacological zero value used is Olaparib (LClabs, Woburn, US) in a final concentration of 1 The inhibitory values (IC50) are determined using either the program Symyx Assay Explorer® or Condosseo® from GeneData.

[2] = target: T3, GST-tagged Tnks-1 (1023-1327 aa) (Homo sapiens, UniProt O95271); test: TNKS1 activity ELISA (autoparsylation assay); assay type: biochemical; details: read-out: IC50 TNKS1 ELISA
T3 construct: GST-tagged Tnks-1 (1023-1327 aa, prepared in-house); made in house
T3 sequence (O95271 1023-1327): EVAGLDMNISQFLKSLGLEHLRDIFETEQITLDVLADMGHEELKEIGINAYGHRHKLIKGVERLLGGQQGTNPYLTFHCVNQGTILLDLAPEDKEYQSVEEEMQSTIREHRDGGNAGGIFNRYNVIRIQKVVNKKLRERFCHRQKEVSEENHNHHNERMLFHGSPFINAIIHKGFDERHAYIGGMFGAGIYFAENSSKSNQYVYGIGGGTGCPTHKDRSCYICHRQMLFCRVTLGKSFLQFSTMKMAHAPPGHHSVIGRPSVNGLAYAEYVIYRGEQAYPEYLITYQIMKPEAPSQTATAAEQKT
Description: Description of the TNKS1 and TNKS2 ELISA Assay
Then the activity assay with biotinylated NAD is performed in the absence/presence of the compounds. During the enzymatic reaction GST tagged TNKS transfers biotinylated ADP-ribose to itself from biotinylated NAD as co-substrate. For the detection streptavidin-HRP conjugate is added that binds to the biotinylated TNKS and is thereby captured to the plates. The amount of biotinylated resp. autoparsylated TNKS is detected with a luminescence substrate for HRP. The level of the luminescence signal correlates directly with the amount of autoparsylated TNKS and therefore with activity of TNKS.
The activity ELISA is performed in 384 well Glutathione coated microtiter plates (Express capture Glutathione coated plate, Biocat, Heidelberg, Germany). The plates are pre-equilibrated with PBS. […] The plates are washed 3 times with PBS-Tween-20. The wells are blocked by incubation at room temperature for 20 minutes with 50 μl blocking buffer (PBS, 0.05% Tween-20, 0.5% BSA). Afterwards the plates are washed 3 times with PBS-Tween-20. […] The reaction is stopped by 3 times washing with PBS-Tween-20. For the detection 50 μl of 20 ng/μl Streptavidin, HRP conjugate (MoBiTec, Gottingen, Germany) in PBS/0.05% Tween-20/0.01% BSA are added and the plates are incubated for 30 minutes at room temperature. After three times washing with PBS-Tween-20 50 μl of SuperSignal ELISA Femto Maximum sensitivity substrate solution (ThermoFisherScientific (Pierce), Bonn, Germany) are added. Following a 1 minute incubation at room temperature luminescence signals are measured with an Envision multimode reader (Perkin Elmer LAS Germany GmbH) at 700 nm. The full value used is the inhibitor-free reaction. […] The inhibitory values (IC50) are determined using either the program Symyx Assay Explorer® or Condosseo® from GeneData.

[3] = read-out: IC50 tankyrase 1 (enzyme assay)

T1 sequence (O95271 1023-1327): as above

Row | SMILES | IC50 [1, 3] [nM] | IC50 (His-tagged Parp-1) [nM] | IC50 [2] [nM] | IC50 [1] [nM]
1 | CC(C)(O)c1ccc(-c2nc3ccc(F)cc3c(=O)[nH]2)cc1 [Compound A1, 6-fluoro-2-[4-(1-hydroxy-1-methyl-ethyl)-phenyl]-3H-quinazolin-4-one] | < 300 | 300 to 3000 | < 300 | 
2 | COc1cccc2c(=O)[nH]c(-c3ccc(C(C)(C)O)cc3)nc12 [Compound A2, 2-[4-(1-hydroxy-1-methyl-ethyl)-phenyl]-8-methoxy-3H-quinazolin-4-one] | < 300 | 300 to 3000 | < 300 | 
3 | CC(C)(O)c1ccc(-c2nc3c(F)cccc3c(=O)[nH]2)cc1 [Compound A3, 8-fluoro-2-[4-(1-hydroxy-1-methyl-ethyl)-phenyl]-3H-quinazolin-4-one] | < 300 | 300 to 3000 | < 300 | 
4 | CC(C)(O)c1ccc(-c2nc3cccc(F)c3c(=O)[nH]2)cc1 [Compound A4, 5-fluoro-2-[4-(1-hydroxy-1-methyl-ethyl)-phenyl]-3H-quinazolin-4-one] | < 300 | 300 to 3000 | < 300 | 
5 | CC(C)(O)c1ccc(-c2nc3ccc(Cl)cc3c(=O)[nH]2)cc1 [Compound A5, 6-chloro-2-[4-(1-hydroxy-1-methyl-ethyl)-phenyl]-3H-quinazolin-4-one] | < 300 |  | < 300 | 
6 | CC(C)(O)c1ccc(-c2nc3c(Cl)cccc3c(=O)[nH]2)cc1 [Compound A6, 8-chloro-2-[4-(1-hydroxy-1-methyl-ethyl)-phenyl]-3H-quinazolin-4-one] | < 300 | 300 to 3000 | < 300 | 
7 | CC(C)(OCCO)c1ccc(-c2nc3ccc(F)cc3c(=O)[nH]2)cc1 [Compound A7, 6-fluoro-2-{4-[1-(2-hydroxy-ethoxy)-1-methyl-ethyl]-phenyl}-3H-quinazolin-4-one] | < 300 | 300 to 3000 | < 300 | 
8 | COCCOC(C)(C)c1ccc(-c2nc3ccc(F)cc3c(=O)[nH]2)cc1 [Compound A8, 6-fluoro-2-{4-[1-(2-methoxy-ethoxy)-1-methyl-ethyl]-phenyl}-3H-quinazolin-4-one] | 300 to 3000 | 3000 to 50000 | < 300 | 
9 | CC(C)(C)c1ccc(-c2nc3ccc(F)cc3c(=O)[nH]2)cc1 [Compound A9, 2-(4-tert-butyl-phenyl)-6-fluoro-3H-quinazolin-4-one] | < 300 | 3000 to 50000 | < 300 | 
10 | CN1CCN(c2ccc(-c3nc4ccc(F)cc4c(=O)[nH]3)cc2)CC1 [Compound A10, 6-fluoro-2-[4-(4-methyl-piperazin-1-yl)-phenyl]-3H-quinazolin-4-one] | < 300 | 300 to 3000 | < 300 | 
11 | CC(C)(O)c1ccc(-c2nc3c(F)cc(F)cc3c(=O)[nH]2)cc1 [Compound A11, 6,8-difluoro-2-[4-(1-hydroxy-1-methyl-ethyl)phenyl]-3H-quinazolin-4-one] |  | 300 to 3000 |  | 
12 | CC(C)(O)c1ccc(-c2nc3ccc(F)c(F)c3c(=O)[nH]2)cc1 [Compound A12, 5,6-difluoro-2-[4-(1-hydroxy-1-methyl-ethyl)phenyl]-3H-quinazolin-4-one] | < 300 | 300 to 3000 | < 300 | 
13 | CC(C)(O)c1ccc(-c2nc3ccc(F)cc3c(=O)[nH]2)nc1 [Compound A13, 6-fluoro-2-[5-(1-hydroxy-1-methyl-ethyl)-2-pyridyl]-3H-quinazolin-4-one] | 300 to 3000 |  |  | 
14 | Cc1cc(F)cc2c(=O)[nH]c(-c3ccc(C(C)(C)OCCO)cc3)nc12 [Compound A21, 6-fluoro-2-{4-[1-(2-hydroxy-ethoxy)-1-methyl-ethyl]-phenyl}-8-methyl-3H-quinazolin-4-one] | 300 to 3000 | 300 to 3000 | < 300 | 
15 | CC(C)(O)c1ccc(-c2nc3cccc(Cl)c3c(=O)[nH]2)cc1 [Compound A23, 5-chloro-2-[4-(1-hydroxy-1-methyl-ethyl)-phenyl]-3H-quinazolin-4-one] | 300 to 3000 |  | < 300 | 
16 | Cc1cccc2c(=O)[nH]c(-c3ccc(C(C)(C)O)cc3)nc12 [Compound A24, 2-[4-(1-hydroxy-1-methyl-ethyl)-phenyl]-8-methyl-3H-quinazolin-4-one] | < 300 | < 300 | < 300 | 
17 | Cc1cc(F)cc2c(=O)[nH]c(-c3ccc(C(C)(C)O)cc3)nc12 [Compound A25, 6-fluoro-2-[4-(1-hydroxy-1-methyl-ethyl)-phenyl]-8-methyl-3H-quinazolin-4-one] | < 300 | < 300 | < 300 | 
18 | CC(C)(O)c1ccc(-c2nc3c(F)ccc(F)c3c(=O)[nH]2)cc1 [Compound A27, 5,8-difluoro-2-[4-(1-hydroxy-1-methyl-ethyl)-phenyl]-3H-quinazolin-4-one] | < 300 |  |  | 
19 | O=c1[nH]c(-c2ccc(C3CCNCC3)cc2)nc2c(F)cc(F)cc12 [Compound A34, 6,8-difluoro-2-(4-piperidin-4-yl-phenyl)-3H-quinazolin-4-one hydrochloride] |  |  |  | < 300
